≈ marks a conversion by molar mass, not a printed value.

These results are taken from ChEMBL document CHEMBL1132323, “Anti-Helicobacter pylori agents. 3. 2-[(Arylalkyl)guanidino]-4-furylthiazoles” (1999).

The test system of one experiment is Bacteroides fragilis. Description: Antimicrobial activity against Bacteroides fragilis. The format is functional.
Experiment [1] deals with Clostridium perfringens. Description: (§1) Antimicrobial activity against Clostridium perfringens. The experiment is classed as functional.
The test system of another experiment is Campylobacter jejuni. Description: Antimicrobial activity against Campylobacter jejuni. The experiment is classed as functional.
Experiment [2] deals with Clostridioides difficile. Description: (§2) Antimicrobial activity against Clostridium difficile. The format is functional.
Experiment [3] concerns Helicobacter pylori. Description: Antimicrobial activity against Helicobacter pylori. The format is functional.
In another experiment the test system is Neisseria gonorrhoeae. Description: Antimicrobial activity against Neisseria gonorrhoeae. The format is functional.
Another experiment has as its system Neisseria meningitidis. Description: Antimicrobial activity against Neisseria meningitidis. The experiment is classed as functional.
Experiment [4] concerns Helicobacter pylori. Description: Minimum inhibitory concentration that inhibited macroscopic colony growth of Helicobacter pylori. The experiment is classed as functional.
The target of experiment [5] is Histamine H2 receptor (Cavia porcellus) (UniProt P47747). Description: Histamine H2 receptor antagonism in isolated guinea pig right atrium at concentration of 1*10e-6 g/mL of histamine hydrochloride. The experiment is classed as functional, tissue-based. The settings on record: Cardiac atrium.
The subject of another experiment is Rattus norvegicus. Description: Inhibition of histamine stimulated gastric acid secretion in lumen perfused stomach of anesthetized rats at 1 mg/kg i.v. dose. The format is functional. The conditions noted are these: route intravenous.
The subject of experiment [6] is Clostridium perfringens. The experiment is described as §1. The experiment is classed as functional, organism-based.
Experiment [7] concerns Clostridioides difficile. The experiment is described as §2. The experiment is classed as functional, organism-based.

Chain of Histamine H2 receptor (Cavia porcellus) (P47747 whole entry, the tested form may be a part): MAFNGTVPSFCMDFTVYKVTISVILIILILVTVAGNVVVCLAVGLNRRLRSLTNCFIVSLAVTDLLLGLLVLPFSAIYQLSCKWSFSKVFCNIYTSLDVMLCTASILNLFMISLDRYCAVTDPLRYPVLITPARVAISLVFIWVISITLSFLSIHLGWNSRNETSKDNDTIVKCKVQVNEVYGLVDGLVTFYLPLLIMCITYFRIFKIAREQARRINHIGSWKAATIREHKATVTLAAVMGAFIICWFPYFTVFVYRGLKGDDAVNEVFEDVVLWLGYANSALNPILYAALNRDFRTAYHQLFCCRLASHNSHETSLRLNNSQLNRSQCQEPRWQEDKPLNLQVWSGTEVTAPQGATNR

`CC1(C)S[C@@H]2[C@H](NC(=O)[C@H](N)c3ccc(O)cc3)C(=O)N2[C@H]1C(=O)O` [AMOXICILLIN]: the MIC – broadly, the smallest concentration in the dilution series that meets the test's criterion for growth inhibition – in the experiment with Bacteroides fragilis is 2.1 µg/mL (≈ 5.75 µM); with Clostridium perfringens [1] it was 0.027 µg/mL (≈ 0.0739 µM); against Campylobacter jejuni, 2.2 µg/mL (≈ 6.02 µM); against Clostridioides difficile [2] it was 0.28 µg/mL (≈ 0.766 µM); in the experiment with Helicobacter pylori [3], 0.021 µg/mL (≈ 0.0575 µM); with Neisseria gonorrhoeae, 7.7 µg/mL (≈ 21.1 µM). This molecule also displayed an MIC in the experiment on Neisseria meningitidis of 0.056 µg/mL (≈ 0.153 µM).

In the experiment with Helicobacter pylori [4], `CC(=O)NCc1ccc(-c2csc(NC(=N)NCCc3ccccc3NC(C)=O)n2)o1` registered an MIC of 4.1 µg/mL (≈ 9.31 µM).

In the experiment on Helicobacter pylori [4], `CC[C@H]1OC(=O)[C@H](C)[C@@H](O[C@H]2C[C@@](C)(OC)[C@@H](O)[C@H](C)O2)[C@H](C)[C@@H](O[C@@H]2O[C@H](C)C[C@H](N(C)C)[C@H]2O)[C@](C)(OC)C[C@@H](C)C(=O)[C@H](C)[C@@H](O)[C@]1(C)O` [CLARITHROMYCIN] returned an MIC of 0.057 µg/mL (≈ 0.0762 µM).

`CCOc1ccccc1C/N=C(\N)Nc1nc(-c2ccc(CNC(C)=O)o2)cs1`: the inhibition (commonly the relative decrease from the control value, in per cent) in experiment [5] was 42%.

The molecule `COc1cccc(C/N=C(\N)Nc2nc(-c3ccc(CNC(C)=O)o3)cs2)c1` registered an inhibition in experiment [5] of 28%.

`COc1ccccc1CC/N=C(\N)Nc1nc(-c2cc(-c3ccccc3)c(CNC(C)=O)o2)cs1` came in with an MIC against Helicobacter pylori [4] of 9.47 µg/mL (≈ 19.3 µM).

In the experiment with Helicobacter pylori [4], `COc1ccccc1OCC/N=C(\N)Nc1nc(-c2ccc(CNC(C)=O)o2)cs1` displayed an MIC of 2.5 µg/mL (≈ 5.82 µM).

On to `CC(=O)NCc1ccc(-c2csc(NC(=N)NCCc3ccccc3)n2)o1`, for which the MIC against Helicobacter pylori [4] is 0.13 µg/mL (≈ 0.339 µM). Moreover, in [5], the inhibition worked out at 71%. Also, 1 mg/kg produced 24% inhibition in vivo with Rattus norvegicus.

As to BISMUTH SUBSALICYLATE, the MIC against Bacteroides fragilis was 50 µg/mL; in the experiment with Clostridium perfringens [6] it was above 100 µg/mL; with Campylobacter jejuni it was 7.4 µg/mL; with Clostridioides difficile [7], 50 µg/mL; against Helicobacter pylori [3] it was 8.7 µg/mL; in the experiment with Neisseria gonorrhoeae, 4.7 µg/mL. The MIC with Neisseria meningitidis is 12.5 µg/mL.

Turning to `COc1ccccc1C/N=C(\N)Nc1nc(-c2ccc(CNC(C)=O)o2)cs1`, in experiment [5], the inhibition stood at 26%.

For the molecule `CC(=O)NCc1ccc(-c2csc(NC(=N)NCCc3cccs3)n2)o1`, in the experiment on Helicobacter pylori [4], the minimum inhibitory concentration (MIC) was 0.112 µg/mL (≈ 0.288 µM). This molecule returned an inhibition in [5] of 83%. Besides, at 1 mg/kg the inhibition in vivo in the experiment on Rattus norvegicus was 21%.

Take `CC(=O)NCc1ccc(-c2csc(NC(=N)NCCc3ccccc3[N+](=O)[O-])n2)o1`: the MIC against Helicobacter pylori [4] turned out to be 0.14 µg/mL (≈ 0.327 µM). In [5], this molecule displayed an inhibition of 66%. In the experiment on Rattus norvegicus, at 1 mg/kg the inhibition in vivo was 39%.

`CC(=O)NCc1ccc(-c2csc(NC(=N)NCc3ccccc3)n2)o1` had an inhibition in experiment [5] of 35%.

On to `COc1ccc(C/N=C(\N)Nc2nc(-c3ccc(CNC(C)=O)o3)cs2)cc1`, for which, in the experiment with Helicobacter pylori [4], the MIC came out at 0.28 µg/mL (≈ 0.701 µM).

In the case of `COc1cccc(CC/N=C(\N)Nc2nc(-c3ccc(CNC(C)=O)o3)cs2)c1`, the MIC with Helicobacter pylori [4] amounted to 0.36 µg/mL (≈ 0.871 µM). The molecule also showed an inhibition in experiment [5] of 70%. Besides, the inhibition in vivo (in general, the drop in the measured response relative to a control, in per cent) at 1 mg/kg in the experiment on Rattus norvegicus was found to be 65%.

`Cc1ncc([N+](=O)[O-])n1CCO` [METRONIDAZOLE] returned an MIC against Helicobacter pylori [4] of 5.4 µg/mL (≈ 31.6 µM).

`COc1ccccc1/N=C(\N)Nc1nc(-c2ccc(CNC(C)=O)o2)cs1` returned a minimal inhibitory concentration (MIC) in the experiment with Helicobacter pylori [4] of 0.24 µg/mL (≈ 0.623 µM).

As to `CC(=O)NCc1ccc(-c2csc(NC(=N)NCCc3ccncc3)n2)o1`, in the experiment with Helicobacter pylori [4], the MIC is 1.92 µg/mL (≈ 4.99 µM).

`COc1ccc(CC/N=C(\N)Nc2nc(-c3ccc(CNC(C)=O)o3)cs2)cc1` displayed an MIC against Helicobacter pylori [4] of 0.9 µg/mL (≈ 2.18 µM). The molecule also registered an inhibition in experiment [5] of 27%. The inhibition in vivo at 1 mg/kg in the experiment on Rattus norvegicus stood at 5%.

`COc1ccccc1CC/N=C(\N)Nc1nc(-c2ccc(CNC(C)=O)o2)cs1` yielded an MIC with Helicobacter pylori [4] of 0.052 µg/mL (≈ 0.126 µM). For the same molecule, the inhibition in experiment [5] amounted to 67%. Further, in the experiment on Rattus norvegicus, the inhibition in vivo at 1 mg/kg is 54%.

The molecule `CC(=O)NCc1ccc(-c2csc(NC(=N)NCCCc3ccccc3)n2)o1` displayed an inhibition in [5] of 40%.

`CC(=O)NCc1ccc(-c2csc(NC(=N)NCCNc3ccccc3)n2)o1` had an MIC with Helicobacter pylori [4] of 1.79 µg/mL (≈ 4.49 µM).

With `COc1ccccc1CC/N=C(\N)Nc1nc(-c2cc(CNC(C)=O)co2)cs1`, in the experiment on Helicobacter pylori [4], the MIC was determined as 2.21 µg/mL (≈ 5.34 µM).

In the experiment on Helicobacter pylori [4], `CC(=O)NCc1ccc(-c2csc(NC(=N)NCCc3ccccn3)n2)o1` came in with an MIC of 0.73 µg/mL (≈ 1.9 µM). This molecule also had an inhibition in experiment [5] of 0%.

In the case of `CC(=O)NCc1ccc(-c2csc(NC(=N)NCCc3ccccc3N)n2)o1`, the MIC in the experiment with Helicobacter pylori [4] stood at 1.01 µg/mL (≈ 2.53 µM).

For the molecule `CC(=O)NCc1ccc(-c2csc(NC(=N)NCc3ccccc3O)n2)o1`, inhibition of growth against Helicobacter pylori [4] (MIC) required 5.8 µg/mL (≈ 15 µM).

`CC(=O)NCc1ccc(-c2csc(NC(=N)NCCc3ccco3)n2)o1`: in the experiment with Helicobacter pylori [4], the MIC turned out to be 0.24 µg/mL (≈ 0.643 µM). Further, the inhibition in experiment [5] amounted to 63%. In addition, in the experiment on Rattus norvegicus, the inhibition in vivo at 1 mg/kg was determined as 0%.

Turning to “(2,5-Dihydroxy-4,7-dioxo-[1,3,2]dioxabismepan-5-yl)-acetic acid”, 18 µg/mL was the least that counted as inhibitory with Helicobacter pylori [4] (MIC).

In turn, `COc1ccccc1CC/N=C(\N)Nc1nc(-c2cc(C)c(CNC(C)=O)o2)cs1` came in with an MIC with Helicobacter pylori [4] of 0.03 µg/mL (≈ 0.0702 µM). The molecule further had an inhibition in [5] of 0%.

Take `COc1ccccc1CC/N=C(\N)Nc1nc(-c2cc(CNC(C)=O)c(C)o2)cs1`: the MIC in the experiment with Bacteroides fragilis was above 100 µg/mL; in the experiment on Clostridium perfringens [1], above 100 µg/mL; against Campylobacter jejuni, 23 µg/mL (≈ 53.8 µM); in the experiment with Clostridioides difficile [2], above 100 µg/mL; with Helicobacter pylori [4], 0.046 µg/mL (≈ 0.108 µM); against Neisseria gonorrhoeae it was above 100 µg/mL. The molecule also came in with an MIC in the experiment with Neisseria meningitidis above 100 µg/mL. The molecule further yielded an inhibition in [5] of 0%.

Regarding `CC(=O)NCc1ccc(-c2csc(NC(=N)NCc3ccccc3C)n2)o1`, the inhibition in [5] is 88%.

As for `CC(=O)NCc1ccc(-c2csc(NC(=N)NCc3ccccc3Cl)n2)o1`, the inhibition in experiment [5] is 50%.

In experiment [5], `CC(=O)NCc1ccc(-c2csc(NC(=N)NCc3ccco3)n2)o1` displayed an inhibition of 46%.

Take `CC(=O)NCc1ccc(-c2csc(NC(=N)NCCc3c[nH]cn3)n2)o1`: the MIC with Helicobacter pylori [4] was determined as 31 µg/mL (≈ 83 µM).

In turn, `CN/C(=N\CCSCc1nc[nH]c1C)NC#N` [CIMETIDINE] had an MIC against Helicobacter pylori [4] of 1130 µg/mL (≈ 4480 µM). In the experiment on Rattus norvegicus, this molecule gave an inhibition in vivo at 1 mg/kg of 53%.
